One experiment concerns S. Hominis. In kind it is cell-based. The procedure: (§1) Experiments were conducted in which the full-length epidermicin peptide (51 amino acids, SEQ ID NO:10) was truncated to yield the derivatives shown in FIG. 1 (SEQ ID NOs:11 to 19). NI011-37 (SEQ ID NO:11) Is the region most similar to other peptides in the public domain, NI0138-51 (SEQ ID NO:12) is the region that is most unique with respect to other peptides in the public domain. All other truncations have been carried out by removing residues from the amino-terminal end of the peptide to each lysine residue (K). Lysine is important in antimicrobial peptides as it contributes to the net positive charge, which is thought to have a key role in the mode of action of ‘cationic’ peptides, like NI01 (SEQ ID NO:10).

In the next experiment the test system is S. aureus 1195. Type of experiment: cell-based. The procedure: as §1
The subject of another experiment is S. saprophyticus. Type of experiment: cell-based. How it is done: as §1
The test system of experiment [1] is MRSA. In kind it is cell-based, Staphylococcus aureus. How it is done:
as §1

For another experiment, the system named is Gram-negative bacteria. Type of experiment: cell-based. The settings on record: previous data, not presented. How it is done:
It was a most surprising finding that the truncated and modified novel peptides of the present invention based on the epidermicin peptide were effective against Gram negative bacteria.
(§2) A series of derivatives of the NI0138-51 (SEQ ID NO:12) truncation were carried out with a view to maintaining stability of the helix and/or increasing net positive charge of the peptides (Table 3). Minimum inhibitory concentrations (MICs) were determined for each derivative against a range of Gram positive and Gram negative organisms by a modified 2-fold microtitre broth dilution method (Wu and Hancock, J Biol Chem 1999; 274: 29-35) (Table 2). […] This could not have been predicted.

For the next experiment, the system named is VISA. In kind it is cell-based. The procedure:
as §2

The subject of a further experiment is S aureus 1195. Type of experiment: cell-based. How it is done:
as §2

The test system of another experiment is E. coli. Type of experiment: cell-based. Conditions: for Average MIC: average of triplicate experiments, Table 5. The procedure: as §2
The test system of another experiment is N. lactamica. Type of experiment: cell-based. The procedure: as §2
In experiment [2] the test system is Klebsiella (K. pneumoniae). In kind it is cell-based. The procedure:
as §2

The next experiment has as its system P. aeruginosa. In kind it is cell-based. The procedure: as §2
The test system of experiment [3] is Gram positive and negative bacteria. Put plainly: Antimicrobial activity against drug-resistant pathogens, summary in words. In kind it is cell-based. Conditions: summary of Table 2. The procedure: as §2
Experiment [4] has as its system MRSA. In kind it is cell-based, Staphylococcus aureus. The procedure:
as §2
This is another data set of the same source.

The test system of a further experiment is S. epidermidis. In kind it is cell-based. The procedure: as §1

Where two headings read alike, the source gives them in different places. No end group written: not given here.

As for “MAAFMKLIQFLATKGQKYVSLAWKHKGTILKWINAGQSFEWIYKQIKKLWA [SEQ ID NO:10, reference compound]”, the MIC (in general, the lowest concentration that inhibits growth of the organism) in the experiment with S. Hominis turned out to be 0.42 µg/mL; against S. aureus 1195, 0.16 µg/mL; against S. saprophyticus, 0.02 µg/mL; in the experiment with MRSA [1] it was 0.03 µg/mL. In addition, the “MIC values against Gram-negative bacteria” value with Gram-negative bacteria is greater than 64 µg/mL.
As for “SFEWIYKQIFKLWA [SEQ ID NO:1, SFEWIYKQIFKLWA]”, the minimal inhibitory concentration (MIC) with VISA was greater than 64 µg/mL; against S aureus 1195, greater than 64 µg/mL; against E. coli (E. coli 50, Table 2), greater than 64 µg/mL; against E. coli (E. coli 178, Table 2) it was greater than 64 µg/mL; in the experiment on E. coli (E. coli DH5α, Table 2), greater than 64 µg/mL; in the experiment with E. coli (E.coli 177, Table 2), greater than 64 µg/mL. Further, the MIC (against N. lactamica; in [2]; against P. aeruginosa; with MRSA [4]) was greater than 64 µg/mL throughout. The “Average MIC” value with S aureus 1195, with E. coli (E. coli 49), in the experiment on E. coli (E. coli 50), in the experiment on E. coli (E. coli 177), in the experiment on E. coli (E. coli 178) and in the experiment with E. coli (E. coli 187) was greater than 64 µg/mL each time. In addition, the “Average MIC” value (in the experiment on E. coli (E. coli DH5a); in [2]) was greater than 64 µg/mL each time. In addition, in experiment [3], the “antimicrobial activity against Gram positive and negative bacteria, in words” value is “significantly reduced activity”.
Take KQIKKLWA [SEQ ID NO:19]: the minimum inhibitory concentration (MIC) with S. Hominis was greater than 64 µg/mL; in the experiment with S. epidermidis, greater than 64 µg/mL; against S. aureus 1195, 16 µg/mL; against S. saprophyticus it was 16 µg/mL; in the experiment with MRSA [1], greater than 64 µg/mL.
For the sequence “SFEWIYKQPKKLWA [SEQ ID NO:20, SFEWIYKQPKKLWA]”, the minimal inhibitory concentration (MIC) against VISA was greater than 64 µg/mL; against S aureus 1195, greater than 64 µg/mL; in the experiment on E. coli (E. coli 50, Table 2) it was greater than 64 µg/mL; in the experiment on E. coli (E. coli 178, Table 2), greater than 64 µg/mL; against E. coli (E. coli DH5α, Table 2) it was greater than 64 µg/mL; against E. coli (E.coli 177, Table 2), greater than 64 µg/mL. For the same sequence, the MIC (in experiment [2]; against P. aeruginosa; in the experiment with MRSA [4]) was greater than 64 µg/mL throughout.

The values above are taken from patent publication US10273272B2, “Antimicrobial peptides” (Amprologix Limited, priority 2014, dated 2019).
